Assay results from PMC11352945, “Anticancer Activity of Benzo[a]phenoxazine Compounds Promoting Lysosomal Dysfunction” (Cells, 2024).
≈ marks a conversion by molar mass, not a printed value. Like-named read-outs stand apart in the source and are kept apart here.

Key:
RKO cells [1] = assay: Cell proliferation by CFSE (flow cytometry), RKO; assay type: cell-based, human; settings: IC50 and 2 × IC50, 24 h, 48 h, 72 h
Experimental: (§1) RKO and MCF7 cell proliferation was evaluated through flow cytometry using the Carboxyfluorescein Diacetate Succinimidyl Ester (CFSE) probe. Confluent cells were collected, rinsed with PBS 1×, and incubated with 5 μM of CFSE for 15 min at 37 °C. Then, the cells were rinsed, resuspended in growth medium, and seeded in 12-well plates at 1 × 10^5 cells/mL. After 24 h, adherent cells were treated with compounds C9, A36, and A42 at IC50 and 2 × IC50 concentrations or 0.1% DMSO (vehicle). Untreated cells were used as controls. The cells were harvested at different time points of 0 h, 24 h, […], and 72 h. The cells were then analyzed in a flow cytometer and the CFSE median fluorescence intensity was quantified using the FITC-A channel. All median values were normalized to the time point 0 h.
(§2) The benzo[a]phenoxazines C9, A36, and A42 were tested for their capacity to decrease cell growth using an optimized flow cytometry Carboxyfluorescein Diacetate Succinimidyl Ester (CFSE) labeling procedure. This procedure enables the differentiation of successive rounds of cell division, since the CFSE probe is uniformly distributed among daughter cells during cell division. As a result, a decrease in green CFSE fluorescence was employed as an indicator of cell proliferation.

NCM460 cells [2] = assay: Sulforhodamine B (SRB) cell viability assay, NCM460; assay type: cell-based; settings: Homo sapiens, non-neoplastic cell line, 48 h, read-out: IC50 (μM) ± SD, NCM460
Experimental: (§3) The cells were allowed to adhere overnight, from 12 h to 18 h, and then treated with increasing concentrations of each compound, C9, A36, and A42 (0.125 μM, 0.25 μM, 0.5 μM, 1 μM, 2.5 μM, and 5 μM), in their respective culture mediums for 48 h. In addition to a negative control that consisted only of cells and growth medium, a negative control containing the highest concentration of the solvent in which the compound was dissolved (DMSO 0.1%) was also used. The SRB assay was performed according to Marques et al.. The IC50 values were obtained using GraphPad Prism version 8.2.1 through the application of a sigmoidal dose–response nonlinear regression, after logarithmic transformation. The selectivity index was determined by dividing the IC50 value of the non-neoplastic BJ-5ta cell line by the IC50 value of the cancer cell lines (IC50 BJ-5ta/IC50 cancer cell line); furthermore, for the CRC model, a second selectivity index was also determined using the non-neoplastic NCM460 cell line (IC50 NCM460/IC50 CRC cell line). According to the results of the selectivity index, the cell line with the highest selectivity value for each of the models, CRC and breast, was selected for subsequent characterization.
(§4) Three CRC-derived cell lines, SW480 (KRAS^G12V), HCT116 (KRAS^G13D), and RKO (BRAF^V600E), harboring somatic mutations on KRAS or BRAF, and two breast-cancer-derived cell lines, MDA-MB-231 (basal like) and MCF7 (luminal A subtype), together with two non-neoplastic cell lines, NCM460 (normal colon mucosal epithelial cell line) and BJ-5ta (normal foreskin fibroblast cell line), were used to study the activity and selectivity of the three new benzo[a]phenoxazine compounds, C9, A36, and A42. All cell lines were treated with a range of drug concentrations (0.125 μM, 0.25 μM, 0.5 μM, 1 μM, 2.5 μM, and 5 μM) for 48 h, and the effect on cell viability was assessed using a sulforhodamine B assay (SRB) (Figure 2). […] In addition, the selectivity index was determined using the BJ-5ta cell line as a reference, as well as the NCM460 cell line for the CRC model (Table 1).

SW480 cells [3] = assay: Sulforhodamine B (SRB) cell viability assay, SW480; assay type: cell-based; settings: Homo sapiens, CRC cell line, 48 h, read-out: IC50 (μM) ± SD, SW480
Experimental: as §3, §4

MCF7 cells [4] = assay: Colony formation assay, MCF7; assay type: cell-based, human; settings: MCF7, IC50/2, 48 h treatment
Experimental: (§5) A colony formation assay was conducted on the RKO and MCF7 cell lines. In 6-well plates, 600 cells/mL and 800 cells/mL RKO and MCF7 cells, respectively, were seeded. Adherent cells were treated with the compounds C9, A36, and A42 at IC50/2 and IC50 concentrations or 0.1% DMSO (vehicle). As a control, untreated cells were used. Following a 48 h incubation period, the cells were twice rinsed with PBS 1× before being supplemented with new medium. After that, the cells were given 10–14 days to grow (new medium was added every 3 days). Following a PBS 1× rinse, the colonies were fixed for 30 min using 0.5% crystal violet and 6% glutaraldehyde. The ImageJ software (V1.53) was used to calculate the number of colonies. The percentage of colonies was determined and normalized for the untreated control.

HCT116 cells [5] = assay: Sulforhodamine B (SRB) cell viability assay, HCT116; assay type: cell-based; settings: Homo sapiens, HCT-116, CRC cell line, 48 h, read-out: IC50 (μM) ± SD, HCT116
Experimental: as §3, §4

RKO cells [6] = assay: Sulforhodamine B (SRB) cell viability assay, RKO; assay type: cell-based; settings: Homo sapiens, CRC cell line, 48 h, read-out: IC50 (μM) ± SD, RKO
Experimental: as §3, §4

MDA-MB-231 cells [7] = assay: Sulforhodamine B (SRB) cell viability assay, MDA-MB-231; assay type: cell-based, human; settings: for IC50: Homo sapiens, MDA-MB-231, breast cancer cell line, 48 h, SRB, read-out: IC50 (μM) ± SD, MDA-MB-231; for Selectivity Index Cell Line IC50/BJ-5ta IC50: MDA-MB-231 versus BJ-5ta
Experimental: as §3
Three CRC-derived cell lines, SW480 (KRAS^G12V), HCT116 (KRAS^G13D), and RKO (BRAF^V600E), harboring somatic mutations on KRAS or BRAF, and two breast-cancer-derived cell lines, MDA-MB-231 (basal like) and MCF7 (luminal A subtype), together with two non-neoplastic cell lines, NCM460 (normal colon mucosal epithelial cell line) and BJ-5ta (normal foreskin fibroblast cell line), were used to study the activity and selectivity of the three new benzo[a]phenoxazine compounds, C9, A36, and A42. All cell lines were treated with a range of drug concentrations (0.125 μM, 0.25 μM, 0.5 μM, 1 μM, 2.5 μM, and 5 μM) for 48 h, and the effect on cell viability was assessed using a sulforhodamine B assay (SRB) (Figure 2). The results were used to determine the IC50 value of each compound for all the cell lines (Table 1). In addition, the selectivity index was determined using the BJ-5ta cell line as a reference, as well as the NCM460 cell line for the CRC model (Table 1).

MCF7 cells [8] = assay: Sulforhodamine B (SRB) cell viability assay, MCF7; assay type: cell-based; settings: Homo sapiens, breast cancer cell line, 48 h, read-out: IC50 (μM) ± SD, MCF7
Experimental: as §3, §4

MCF7 cells [9] = assay: Cell proliferation by CFSE (flow cytometry), MCF7; assay type: cell-based, human
Experimental: as §1, §2

S. cerevisiae = settings: yeast S. cerevisiae, microdilution; cited from earlier work
BJ-5ta cells [10] = assay: Sulforhodamine B (SRB) cell viability assay, BJ-5ta; assay type: cell-based; settings: Homo sapiens, non-neoplastic cell line, 48 h, read-out: IC50 (μM) ± SD, BJ-5ta
Experimental: as §3, §4

MCF7 cells [11] = assay: Annexin V/PI assay (flow cytometry), MCF7; assay type: cell-based, human; settings: MCF7, 2 × IC50 and 4 × IC50, 48 h
Experimental: (§6) RKO and MCF7 cells were seeded in 12-well plates at a density of 1 × 10^5 cells/mL. After 24 h, the cells were treated with C9, A36, and A42 at 2 × IC50 and 4 × IC50 concentrations or 0.1% DMSO (vehicle). Untreated cells were used as controls. After 48 h, floating and adherent cells were collected. The cells were resuspended in […] of binding buffer and treated for 15 min in the dark with 5 μL of Annexin V-FITC (Detection Kit-ab14085) and 5 μL of Propidium Iodide (50 μg/mL). The samples were subjected to flow cytometry analysis, PI fluorescence was detected using the ECD-A channel, and Annexin V fluorescence was detected using the FITC-A channel.
(§7) One of the main goals of clinical oncology is the development of compounds and treatments capable of selectively eliminating cancer cells. In this sense, we next evaluated the capability of the compounds to induce cell death in both cell lines. For this, we performed a flow cytometry analysis using annexin V-FITC and propidium iodide PI double staining. The conjugation of these two probes allowed for the discrimination of viable (negative for both), early apoptotic (annexin + and PI−), late apoptotic (annexin+ and PI+), and necrotic (annexin− and PI+) cells. […] Both flouting and attached cells were harvested and double stained.

RKO cells [12] = assay: Colony formation assay, RKO; assay type: cell-based, human; settings: 10-14 days growth
Experimental: as §5

RKO cells [13] = assay: Annexin V/PI assay (flow cytometry), RKO; assay type: cell-based, human; settings: 2 × IC50 and 4 × IC50, 48 h
Experimental: as §6, §7

NCM460 cells [14] = tested on: NCM460 cells; design: method as in PMID 36614056; settings: lead compound, non-neoplastic cell line; read-out: IC50 (μM) ± SD, NCM460; cited from earlier work
BJ-5ta cells [15] = tested on: BJ-5ta cells; design: method as in PMID 36614056; settings: lead compound, non-neoplastic cell line; read-out: IC50 (μM) ± SD, BJ-5ta; cited from earlier work
SW480 cells [16] = tested on: SW480 cells; design: method as in PMID 36614056; settings: lead compound, CRC cell line; read-out: IC50 (μM) ± SD, SW480; cited from earlier work
RKO cells [17] = tested on: RKO cells; design: method as in PMID 36614056; settings: lead compound, CRC cell line; read-out: IC50 (μM) ± SD, RKO; cited from earlier work
MCF7 cells [18] = tested on: MCF7 cells; design: method as in PMID 36614056; settings: lead compound, breast cancer cell line; read-out: IC50 (μM) ± SD, MCF7; cited from earlier work
MDA-MB-231 cells [19] = tested on: MDA-MB-231 cells; design: method as in PMID 36614056; settings: lead compound, breast cancer cell line; read-out: IC50 (μM) ± SD, MDA-MB-231; cited from earlier work
HCT116 cells [20] = tested on: HCT116 cells; design: method as in PMID 36614056; settings: lead compound, CRC cell line; read-out: IC50 (μM) ± SD, HCT116; cited from earlier work

| IC50 (SW480 cells [3]) | IC50 (HCT116 cells [5]) | IC50 (MDA-MB-231 cells [7]) | IC50 (MCF7 cells [8]) | Structure (SMILES) | IC50 (NCM460 cells [2]) | Colonies detected (MCF7 cells [4]) | IC50 (RKO cells [6]) | Selectivity Index Cell Line IC50/BJ-5ta IC50 (MDA-MB-231 cells [7]) | MIC (minimum inhibitory concentration) (S. cerevisiae) | IC50 (BJ-5ta cells [10]) | other results |
| --- | --- | --- | --- | --- | --- | --- | --- | --- | --- | --- | --- |
| 0.72 ± 0.03 µM | 1.28 ± 0.06 µM | 1.01 ± 0.09 µM | 0.63 ± 0.05 µM | CCCNc1cc2oc3cc(=[N+](CCC)CCC)ccc-3nc2c2ccccc12 [A36] | 2.06 ± 0.25 µM | reduced number of small colonies | 0.37 ± 0.03 µM | 2.41 | 1.56 µM | 2.44 ± 0.18 µM | Effect on cell proliferation (CFSE) (RKO cells [1]): highest effect; CFSE median fluorescence normalized to T0 (MCF7 cells [9]; MCF7, 2 × IC50, 24 h (untreated 37%)): 62%; CFSE median fluorescence normalized to T0 (MCF7 cells [9]; MCF7, 2 × IC50, 48 h (untreated 21%)): 59%; CFSE median fluorescence normalized to T0 (MCF7 cells [9]; MCF7, 2 × IC50, 72 h (untreated 10%)): 47%; Effect on cell proliferation (CFSE) (MCF7 cells [9]; MCF7, IC50 and 2 × IC50, 24 h, 48 h, 72 h): highest effect; CFSE median fluorescence normalized to T0 (MCF7 cells [9]; MCF7, IC50 concentration, 24 h (untreated 37%)): 53%; CFSE median fluorescence normalized to T0 (MCF7 cells [9]; MCF7, IC50 concentration, 48 h (untreated 21%)): 50%; CFSE median fluorescence normalized to T0 (MCF7 cells [9]; MCF7, IC50 concentration, 72 h (untreated 10%)): 41% |
| 0.78 ± 0.07 µM | 1.13 ± 0.07 µM | 0.79 ± 0.03 µM | 0.54 ± 0.02 µM | ClCCCN=c1cc2oc3c4c5c(cc3nc-2c2ccccc12)CCCN5CCC4 [A42] | 2.59 ± 0.31 µM | reduced number of small colonies | 0.29 ± 0.01 µM | 3.26 | 0.78 µM (≈ 0.326 µg/mL) | 2.58 ± 0.19 µM | Cell death induction (Annexin V/PI) (MCF7 cells [11]): most powerful compounds; Reduction of the colonies formed (RKO cells [12]; IC50, 48 h treatment): > 90%; Reduction of the colonies formed (RKO cells [12]; IC50/2, 48 h treatment): more than 75%; Cell death induction (Annexin V/PI) (RKO cells [13]): most powerful compounds |
|  |  |  |  | CCN=c1cc2oc3cc(NCCCC(=O)OCC)c4ccccc4c3nc-2cc1C [BaP1] |  |  |  | 1.05 | 25 µM (≈ 10.4 µg/mL) |  | IC50 (NCM460 cells [14]): 12.8 ± 2.05 µM; IC50 (BJ-5ta cells [15]): 1.83 ± 0.06 µM; IC50 (SW480 cells [16]): 5.6 ± 0.19 µM; IC50 (RKO cells [17]): 1.4 ± 0.08 µM; IC50 (MCF7 cells [18]): 0.92 ± 0.07 µM; IC50 (MDA-MB-231 cells [19]): 1.73 ± 0.03 µM; IC50 (HCT116 cells [20]): 1.9 ± 0.09 µM |
